From patent US20170029366A1, “INHIBITORS OF HISTONE LYSINE SPECIFIC DEMETHYLASE (LSD1) AND HISTONE DEACETYLASES (HDACS)” (THE JOHNS HOPKINS UNIVERSITY, priority 2014, published 2017)
Where “and” joins values, the source holds several entries; their conditions need not be identical. Equal values may be shown once. Where a name gives a salt, the structure may show the parent alone. Read-outs that look alike come from different tables or passages of the source.

How the values were obtained:
GST-LSD1 [1] = biological target: T1, GST-LSD1 (Homo sapiens, UniProt O60341); experiment: biochemical
GST-LSD1 [2] = biological target: T1, GST-LSD1; conditions: for LSD1 inhibitory potency (in words): structure-activity comment on Table 1; for k(inact)/Ki(inact): GST-LSD1 inactivation efficiency
MAO-A = biological target: T2, MAO-A (Homo sapiens, UniProt P21397); experiment: MAO-A activity and inhibition assay (peroxidase-coupled, tyramine); format: biochemical
T2 construct: purchased Sigma M 7316
T2 sequence (P21397 1-527): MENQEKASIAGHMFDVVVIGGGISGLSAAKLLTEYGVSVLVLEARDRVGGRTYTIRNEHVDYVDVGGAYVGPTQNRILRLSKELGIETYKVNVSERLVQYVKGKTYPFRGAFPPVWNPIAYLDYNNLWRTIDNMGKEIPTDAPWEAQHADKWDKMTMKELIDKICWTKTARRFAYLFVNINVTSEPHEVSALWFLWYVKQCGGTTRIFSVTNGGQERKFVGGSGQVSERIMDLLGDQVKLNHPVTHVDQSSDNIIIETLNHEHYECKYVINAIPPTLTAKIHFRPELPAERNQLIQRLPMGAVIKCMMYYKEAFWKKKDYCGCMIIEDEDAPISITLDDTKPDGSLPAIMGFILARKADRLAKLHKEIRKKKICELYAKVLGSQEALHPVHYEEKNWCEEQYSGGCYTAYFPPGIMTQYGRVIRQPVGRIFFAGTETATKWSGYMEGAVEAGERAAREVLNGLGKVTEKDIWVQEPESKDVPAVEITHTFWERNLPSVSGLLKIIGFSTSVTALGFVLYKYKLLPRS
Experimental: (§1) MAO-A/B activity was measured spectrophotometrically using a peroxidase-coupled assay as previously described.
(§2) Each experiment was repeated at least two independent times and repeat measured values were typically within 20% of each other.

MAO-B = biological target: T3, MAO-B (Homo sapiens, UniProt P27338); experiment: MAO-B activity and inhibition assay (peroxidase-coupled, tyramine); format: biochemical
T3 construct: purchased Sigma M 7441
T3 sequence (P27338 1-520): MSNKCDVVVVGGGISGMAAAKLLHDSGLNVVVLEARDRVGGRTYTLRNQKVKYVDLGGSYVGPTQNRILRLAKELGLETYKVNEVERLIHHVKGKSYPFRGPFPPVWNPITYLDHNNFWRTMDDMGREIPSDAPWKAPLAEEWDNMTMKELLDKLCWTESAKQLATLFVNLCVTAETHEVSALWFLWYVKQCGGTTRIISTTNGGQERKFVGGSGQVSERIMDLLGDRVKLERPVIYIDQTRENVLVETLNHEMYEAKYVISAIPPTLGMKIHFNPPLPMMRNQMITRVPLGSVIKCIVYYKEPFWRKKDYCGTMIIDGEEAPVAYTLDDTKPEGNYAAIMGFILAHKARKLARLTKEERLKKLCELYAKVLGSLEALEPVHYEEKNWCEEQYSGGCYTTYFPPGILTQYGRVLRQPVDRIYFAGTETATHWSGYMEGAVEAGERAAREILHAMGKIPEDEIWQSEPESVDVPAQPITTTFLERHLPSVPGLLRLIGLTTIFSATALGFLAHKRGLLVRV
Experimental: as §1, §2

H3K4Me2 in LNCaP cells = experiment: Western blot of histone H3 marks in LNCaP cells; format: cell-based
Text: Histone extracts were isolated as described previously. […] Data are presented from one representative experiment.
H3K4Me was detected using a polyclonal rabbit antibody (abcam ab8895). H3K4Me2 was detected using a monoclonal rabbit antibody (abcam ab32356). H3K4Me3 was detected using a polyclonal rabbit antibody (abcam ab8580). […] H3K9Me2 was detected using a monoclonal mouse antibody (abcam ab1220). H3K36Me3 was detected using a polyclonal rabbit antibody (abcam ab9050). H3K9Ac was detected using a polyclonal rabbit antibody (abcam ab4441). Total H3 was detected using a polyclonal rabbit antibody (abcam ab1791). LSD1 was detected using a polyclonal rabbit antibody (abcam ab17721). Actin was detected using a monoclonal mouse antibody (Sigma A1978).

H3K4Me2 in H460 cells = experiment: Western blot of H3K4Me2 in H460 cells; format: cell-based; conditions: 48 h, compared with LNCaP
H3K4Me2 in A549 cells = experiment: Western blot of H3K4Me2 in A549 cells; format: cell-based; conditions: 48 h
H3K4Me2 in MB-231 cells = experiment: Western blot of H3K4Me2 in MB-231 cells; format: cell-based; conditions: 48 h
H460 cells = experiment: [3H] thymidine incorporation assay in H460 cells; format: cell-based; conditions: Homo sapiens, NCI-H460, 48 h, read-out: IC50 of cellular proliferation rate (3H-thymidine incorporation)
LNCaP cells [3] = experiment: [3H] thymidine incorporation assay in LNCaP cells; format: cell-based; conditions: Homo sapiens, 48 h, read-out: IC50 of cellular proliferation rate (3H-thymidine incorporation)
Experimental: The effects of bizine on cell proliferation using a ^3H-thymidine incorporation assay were examined as a measure of the rate of DNA synthesis.
6 hours prior to harvesting cells, 10 μL of 0.1 mCi/mL Thymidine [methyl-3H] (ARC ART0178) was added to each well. The cells were then harvested (PerkinElmer) and radioactivity was measured with a liquid scintillation counter (PerkinElmer MicroBeta).

[4] = test system: Immature primary cortical neurons; experiment: Oxidative toxicity (HCA) and neuron viability assay (MTT); format: cell-based, Sprague Dawley rats
Experimental: The next day cells were rinsed and then placed in medium containing 5 mM HCA. […] The next day, cell viability was assessed by the MTT assay (Promega). […] The two-way ANOVA followed by the Bonferroni posttest was used to measure statistical significance. p<0.05 was considered to be statistically significant. Each bar represents four different rat cultures.

GST-LSD1 [5] = biological target: T1, GST-LSD1; experiment: MassSQUIRM LSD1 inhibition assay; format: biochemical; parameters: made in house; host or cells: E. coli; conditions: 50 μM inhibitor, 215 nM GST-LSD1, 30 min, 25° C.
Experimental: MassSQUIRM inhibition experiments were performed in triplicate as described previously. […] The demethylase reactions were run at 25° C. for 30 min and then analyzed as reported previously.

LNCaP cells [6] = experiment: Drug combination experiments with bizine ([3H] thymidine, Combination Index); format: cell-based; conditions: binary combination with bizine, 48 h, 3H-thymidine incorporation
[7] = GST-LSD1, peroxidase-coupled assay

CN(C)NCCc1ccccc1 [Compound 9b, 1,1-Dimethyl-2-(2-phenylethyl)hydrazine]
IC50 (GST-LSD1 [1]): > 100 µM

CNNCCCc1ccc(OC)cc1 [Compound 9f, 1-[3-(4-Methoxyphenyl)propyl]-2-methylhydrazine dihydrochloride]
IC50 (GST-LSD1 [1]): > 100 µM

NNCCCN1CCOCC1 [Compound 11, 4-(3-Hydrazinylpropyl) morpholine, reference compound]
LSD1 inhibitory potency (in words) (GST-LSD1 [2]): not compatible with LSD1 inhibition | IC50 (GST-LSD1 [1]): > 100 µM

Cl.Cl.NNCCc1ccc(NC(=O)CCCc2ccccc2)cc1 [Compound 12d, N-[4-(2-Hydrazinylethyl)phenyl]-4-phenylbutanamide dihydrochloride]
k(inact) (MAO-A): 0.30 ± 0.11 min⁻¹ | k(inact) (MAO-B): 0.26 ± 0.14 min⁻¹ | time of compound exposure at which changes in H3K4Me2 could be detected (H3K4Me2 in LNCaP cells; 10 μM): ≤ 6 h | EC50 (H3K4Me2 in LNCaP cells; Homo sapiens, 48 h, Western blot, read-out: EC50 of increase in H3K4Me2 signal): ~2 µM | effects on H3K4Me2 levels (in words) (H3K4Me2 in H460 cells): comparable dose-response effects | concentration required for reproducible increases in H3K4Me2 (H3K4Me2 in A549 cells): 20 µM | concentration required for reproducible increases in H3K4Me2 (H3K4Me2 in MB-231 cells): 20 µM | IC50 (H460 cells): 14 µM | IC50 (LNCaP cells [3]): 16 µM | survival of neurons after HCA-treatment ([4]; 0.5 μM, 5 mM HCA, MTT): significantly enhanced survival of neurons | k(inact) (GST-LSD1 [2]; GST-LSD1, peroxidase-coupled assay, dihydrochloride): 0.15 min⁻¹ and 0.15 ± 0.017 min⁻¹ | LSD1 inhibitory potency (in words) (GST-LSD1 [2]): most potent LSD1 inhibitor | LSD1 inhibition in MassSQUIRM assay (in words) (GST-LSD1 [5]): very substantial LSD1 inhibition

NNCCc1ccc(N(Cc2ccccc2)C(=O)CCCc2ccccc2)cc1.O=C(O)C(=O)O [Compound 12m, N-Benzyl-N-[4-(2-hydrazinylethyl)phenyl]-4-phenylbutanamide oxalate]
k(inact) (GST-LSD1 [2]; [7]): 0.22 ± 0.025 min⁻¹ | k(inact)/Ki(inact) (GST-LSD1 [2]): 2330 ± 733 M⁻¹ s⁻¹

NNCCc1ccc(NC(=O)/C=C/c2ccccc2)cc1.O=S(=O)(O)O [Compound 13, (2E)-N-[4-(2-Hydrazinylethyl)phenyl]-3-phenylprop-2-enamide sulfate]
k(inact) (GST-LSD1 [2]; [7]): 0.17 ± 0.21 min⁻¹ | k(inact)/Ki(inact) (GST-LSD1 [2]): 28300 ± 11300 M⁻¹ s⁻¹ | LSD1 inhibitory potency (in words) (GST-LSD1 [2]): reduced LSD1 inhibitory potency

NNCCCc1ccc(OCc2ccccc2)cc1 [Compound 14, {3-[4-(Benxyloxy)phenyl]propyl}hydrazine]
k(inact) (GST-LSD1 [2]; [7]): 0.18 ± 0.038 min⁻¹ | KI (inactivation) (GST-LSD1 [2]; GST-LSD1, peroxidase-coupled assay, extrapolated to zero substrate): 0.9 ± 0.45 µM | k(inact)/Ki(inact) (GST-LSD1 [2]): 3330 ± 1830 M⁻¹ s⁻¹ | LSD1 inhibitory potency (in words) (GST-LSD1 [2]): reduced LSD1 inhibitory potency

NNCCc1ccc(NC(=O)CCc2c[nH]c3ccccc23)cc1.O=S(=O)(O)O [Compound 15a, N-[4-(2-Hydrazinylethyl)phenyl]-3-(1H-indol-3-yl)propanamide sulfate]
k(inact) (GST-LSD1 [2]; [7]): 0.21 ± 0.030 min⁻¹ | k(inact)/Ki(inact) (GST-LSD1 [2]): 16700 ± 6830 M⁻¹ s⁻¹

Cc1[nH]c2ccccc2c1CCNCc1ccc(/C=C/C(=O)NO)cc1 [LBH-589]
effect of combination with bizine on cell inhibition (in words) (LNCaP cells [6]): additive to synergistic effects

Nc1ccccc1NC(=O)c1ccc(CNC(=O)OCc2cccnc2)cc1 [MS-275]
effect of combination with bizine on cell inhibition (in words) (LNCaP cells [6]): additive to synergistic effects

NNCCc1ccccc1 [phenelzine, reference compound]
H3K4Me2 changes (H3K4Me2 in LNCaP cells; 48 h, concentrations up to 40 M): did not induce H3K4Me2 changes | neuroprotection after HCA-treatment ([4]; 10 M phenelzine compared with 0.5 μM bizine): comparable | k(inact) (GST-LSD1 [2]; [7]): 0.35 min⁻¹ and 0.35 ± 0.056 min⁻¹
